Paper PMC9705314, “Characterization of a new potent and long-lasting single chain peptide agonist of RXFP1 in cells and in vivo translational models” (Scientific Reports, 2022)
*1 amine or outer side, *2 acyl side, *3 side chain or, on linkers, in order; H or OH if unused. Where a SMILES comes first, the peptide text is derived from it. Side-chain parts run from the residue outwards. [ ]: non-standard residue; d: D form. The star is where a group is joined. γGlu = O=C(O)[C@H](CCC(=O)[*:2])N[*:1]; Stearoyl = CCCCCCCCCCCCCCCCCC(=O)*; Nle = CCCC[C@H](N)C(=O)O; AEEA = NCCOCCOCC(=O)O; Aib = CC(C)(N)C(=O)O

Legend:
Type in all cases: cell-based
RXFP1 [1] = target: T1, RXFP1 (Homo sapiens, UniProt Q9HBX9); test: cAMP HTRF assay in OVCAR5 cells (endogenous RXFP1); set-up: they express significant endogenous levels of RXFP1 (determined by RT-PCR); endogenous in cells; host or cells: OVCAR5 (from NIH, NCI-60 panel)
T1 sequence (Q9HBX9 1-757): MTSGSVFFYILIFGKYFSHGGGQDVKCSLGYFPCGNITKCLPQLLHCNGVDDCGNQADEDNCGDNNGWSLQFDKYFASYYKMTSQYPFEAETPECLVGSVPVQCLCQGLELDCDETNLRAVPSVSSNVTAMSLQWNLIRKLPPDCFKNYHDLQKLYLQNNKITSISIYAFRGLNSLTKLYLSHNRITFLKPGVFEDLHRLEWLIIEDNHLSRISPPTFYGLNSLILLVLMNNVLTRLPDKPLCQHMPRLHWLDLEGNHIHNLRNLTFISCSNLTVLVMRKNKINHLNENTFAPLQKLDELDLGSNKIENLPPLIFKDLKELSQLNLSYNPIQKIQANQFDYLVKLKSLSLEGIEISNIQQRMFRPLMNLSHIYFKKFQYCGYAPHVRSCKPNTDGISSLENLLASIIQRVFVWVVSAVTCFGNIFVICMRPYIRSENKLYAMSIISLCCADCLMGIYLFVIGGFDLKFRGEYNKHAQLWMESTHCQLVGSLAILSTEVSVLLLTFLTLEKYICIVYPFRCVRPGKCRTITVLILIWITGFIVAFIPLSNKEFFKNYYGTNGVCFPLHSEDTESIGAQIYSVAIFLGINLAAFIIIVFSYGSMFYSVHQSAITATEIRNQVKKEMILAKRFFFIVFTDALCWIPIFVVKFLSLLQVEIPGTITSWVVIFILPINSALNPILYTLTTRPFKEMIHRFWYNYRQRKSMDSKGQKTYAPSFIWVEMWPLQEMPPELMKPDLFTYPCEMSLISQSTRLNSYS
Protocol: OVCAR5 cells were grown in complete medium (RPMI 1640 + 10% Fetal Calf serum + 1% Penicillin/Streptomycin) at 37 °C and 5% CO2 in a humidified incubator. OVCAR5 cells were detached with accutase for 5 min and were plated in 384-well plates at a density of 8000 cells/well.
(§1) Cells were plated in low-volume 384-well plates at a density of 4000 cells/well for EA.hy926_RXFP1 cells or 8000 cells/well for OVCAR5 cells in a final volume of 5 µL. The plates were briefly centrifuged at 800 rpm to allow the cell suspension to move to the bottom of the wells and then incubated for 24 h at 37 °C in 5% CO2. 5µL of the diluted compounds were then transferred in 384-well plate containing 5µL of cells in test medium. The assay plates were incubated for 30 min at 37 °C under 5% CO2. After 30 min the reaction was stopped by addition of HTRF revelation reagents with a multidrop dispenser. […]
(§2) After overnight incubation at room temperature, HTRF signal was read at 620 and 665 nm on Phera Star (BMG LAbtech) plate reader. The HTRF signal was calculated as follows: ratio HTRF = [(signal 665 nm)/(signal 620 nm)] × 10^4. […]
(§3) Relative EC50s (EC50rel) were determined with SAS procedure NLIN in SAS system release 9.4 under Unix via Biost@t-SPEED-LTS v2.4 internal software using the 4-parameter logistic model[47]. […]

RXFP1 [2] = target: T1, RXFP1; test: cAMP HTRF assay in EA.hy926_hRXFP1 cells; set-up: expressed in transfected cells; host or cells: EA.hy926 (ATCC CRL-2922), lentiviral transduction, puromycin selection
Protocol: EA.hy926 or EA.hy926_RXFP1 were grown in complete growth medium (DMEM + 10% Fetal Calf serum + 1% Penicillin/Streptomycin + puromycin 0.5 µg/mL) at 37 °C and 5% CO2 in a humidified incubator. When cells reached 80–90% confluency, cells were detached from plastic using Trypsin–EDTA and were plated in 96 or 384-well plates according to the test.
as §1, §2, §3

rat RXFP1 = target: T2, rat RXFP1 (Rattus norvegicus, UniProt Q6R6I6); test: cAMP HTRF assay in HEK_ratRXFP1 cells
T2 construct: expressed in transfected cells
T2 sequence (Q6R6I6 1-758): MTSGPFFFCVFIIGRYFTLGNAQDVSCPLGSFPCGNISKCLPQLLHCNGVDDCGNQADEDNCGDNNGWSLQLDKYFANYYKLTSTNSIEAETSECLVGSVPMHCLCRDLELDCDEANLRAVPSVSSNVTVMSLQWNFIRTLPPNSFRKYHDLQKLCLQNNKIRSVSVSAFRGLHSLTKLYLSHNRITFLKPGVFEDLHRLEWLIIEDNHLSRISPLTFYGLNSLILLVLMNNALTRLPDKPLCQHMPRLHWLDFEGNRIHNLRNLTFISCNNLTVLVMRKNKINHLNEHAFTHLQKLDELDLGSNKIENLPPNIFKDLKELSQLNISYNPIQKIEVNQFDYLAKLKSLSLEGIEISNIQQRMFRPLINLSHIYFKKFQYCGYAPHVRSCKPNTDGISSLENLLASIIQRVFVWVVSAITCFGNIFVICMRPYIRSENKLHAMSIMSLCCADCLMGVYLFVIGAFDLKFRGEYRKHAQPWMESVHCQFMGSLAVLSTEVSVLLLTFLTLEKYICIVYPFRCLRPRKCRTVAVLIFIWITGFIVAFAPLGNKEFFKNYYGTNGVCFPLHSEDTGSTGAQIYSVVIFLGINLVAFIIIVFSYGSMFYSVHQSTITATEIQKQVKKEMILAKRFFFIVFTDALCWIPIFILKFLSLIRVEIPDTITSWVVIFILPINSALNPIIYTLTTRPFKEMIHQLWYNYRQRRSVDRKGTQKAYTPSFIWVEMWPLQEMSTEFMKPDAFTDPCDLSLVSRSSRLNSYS

RXFP1 [3] = target: T1, RXFP1; test: xCELLigence real time impedance in EA.hy926_RXFP1 cells; set-up: expressed in transfected cells; host or cells: EA.hy926 (ATCC CRL-2922), lentiviral transduction, puromycin selection; details: 10 nM, over 10 h
Protocol: Cell impedance assays in both wild type EA.hy926 and EA.hy926_RXFP1 cell lines were performed using a MP RCTA xCELLigence Analyzer (ACEA Biosciences) on E-Plates. 20,000 cells/well were seeded in E-plates in 200 µL of growth medium and left to settle for 30 min at room temperature. Plates were then placed into the xCELLigence RTCA MP Instrument under 5% CO2 at 37 °C and impedance was continuously measured every 15 min overnight. The next day, a 4-h serum starvation was performed using the same medium but with 0.1% FCS (impedance measurement every 5 min).
Data analysis was performed using RTCA2.0 software according to ACEA recommendations. Raw impedance expressed as cell index was normalized for each well by dividing individual Cell Index values by baseline Cell index values obtained 5 min before peptide treatment in order to obtain Normalized Cell Index (NCI): mean NCI from 4 replicates for each condition are presented.

RXFP1 [4] = target: T1, RXFP1; test: cAMP production in HEK_RXFP1 cells; set-up: expressed in transfected cells; details: HEK_RXFP1 cells (wild type construct), n = 4 experiments in duplicate

Row | Emax (RXFP1 [1]; OVCAR-5, read-out: Emax (%) ± SEM cAMP) [%] | Emax (RXFP1 [2]; read-out: Emax (%) ± SEM cAMP) [%] | Emax (rat RXFP1; read-out: Emax (%) ± SEM cAMP) [%] | kinetics and shape of the RXFP1 activation signal (impedance) (RXFP1 [3]) | Emax (%) ± SEM cAMP (RXFP1 [1]; OVCAR5 cells, % of 100 nM relaxin response, n = 6) [%] | cAMP activity (RXFP1 [4]) | Emax (%) ± SEM cAMP (RXFP1 [2]; EA.hy926_hRXFP1 cells, % of 100 nM relaxin response, n = 5) [%] | Emax (%) ± SEM cAMP (rat RXFP1; HEK_ratRXFP1 cells, % of 100 nM relaxin response, n = 6) [%] | EC50 (rat RXFP1; HEK_ratRXFP1 cells, geometric mean of relative EC50 with 95% CI, n = 6) [nM] | Compound
1 | 84.1 ± 1.1 | 93.7 ± 1.1 | 68.5 ± 2.8 | – | – | – | – | – | – | CCCCCCCCCCCCCCCCCC(=O)N[C@@H](CCC(=O)N[C@@H](CCC(=O)N[C@@H](CCC(=O)NCCOCCOCC(=O)NCCOCCOCC(=O)NCCOCCOCC(=O)NCCCC[C@H](NC(=O)[C@H](CCCCNC(C)=O)NC(=O)[C@H](CCCCN)NC(=O)[C@H](CCCNC(=N)N)NC(=O)C(C)(C)NC(=O)[C@H](CO)NC(=O)[C@H](Cc1c[nH]c2ccccc12)NC(=O)[C@@H](NC(=O)[C@H](CO)NC(=O)[C@H](CCCC)NC(=O)CNC(=O)[C@H](CCC(=O)O)NC(=O)C(C)(C)NC(=O)C(C)(C)NC(=O)[C@@H](NC(=O)[C@H](CCCCNC(C)=O)NC(=O)[C@H](C)NC(=O)[C@H](CCCNC(=N)N)NC(=O)[C@@H](NC(=O)[C@H](CCCCN)NC(=O)[C@H](CCC(=O)O)NC(=O)[C@H](CCCNC(=N)N)NC(=O)CNC(=O)[C@H](CCC(=O)O)NC(=O)[C@H](CC(C)C)NC(C)=O)C(C)C)[C@@H](C)CC)[C@@H](C)O)C(N)=O)C(=O)O)C(=O)O)C(=O)O [SA10SC-RLX] (Ac-LEGREKVRAK(Ac)I[Aib][Aib]EG[Nle]STWS[Aib]RKK(Ac)K([AEEA-AEEA-AEEA-γGlu-γGlu-γGlu-Stearoyl])-NH2)
2 | – | – | – | superimposable responses | 96.2 ± 0.8 | activity was in the same range | 100.1 ± 0.7 | 95.6 ± 0.8 | 1.4 | relaxin
